From patent US20030224983A1, “Stimulation of beta cell proliferation” (priority 1998, published 2003)

Legend:
[1] = system: beta cells (insulin positive cells in pancreatic islet cells from newborn rats); experiment: beta cell proliferation in vitro, BrdU incorporation in insulin positive islet cells; format: cell-based, rat; conditions: for number of labelled beta cells: then 10 μM BrdU for 90 min, absence of hormones 0.6%
Excerpt: Diabetes is characterized by insufficiency of the pancreatic beta cells to maintain normoglycemia. In type 1 diabetes (IDDM) this is due to destruction of the beta cells by an autoimmune process whereas in type 2 diabetes (NIDDM) it is due to a combination of beta cell deficiency and peripheral insulin resistance. […] However in diabetic patients the number of beta cells is reduced and it is therefore pertinent not only to improve the function of the beta cells by therapeutical means but also to increase the number of beta cells. […] In our efforts to identify beta cell growth factors we discovered that GLP-1 indeed could stimulate beta cell proliferation in vitro. The proliferation was measured as incorporation of the thymidine analogue 5-bromo-2-deoxyuridine into DNA in insulin positive cells in pancreatic islet cells from newborn rats. […] This may have important implication for the treatment and/or prevention of diabetes.
The protocol was a slight modification of the procedure described by Billestrup and Nielsen (Billestrup N, Nielsen J H: The stimulatory effect of growth hormone, prolactin, and placental lactogen on beta cell proliferation is not mediated by insulin-like growth factor-I. Endocrinology 1991; 129:883-888.). Pancreatic islets were isolated from newborn rats by the collagenase method and cultured for 2-5 days before use. 2000 islets were transfered to 15 ml plastic tubes and washed once with Ca/Mg-free Hank's balanced salt solution. 500 μl cold trypsin solution (0.05% trypsin, 0.53 mM EDTA in Ca/Mg-free Hank's solution). The islets were dispersed by aspiration with a pipette. 5 ml culture medium RPMI 1640 with 2% human serum was added. 75,000 islet cells were then placed in tissue culture flasks previously coated with ECL cell attachment matrix (Upstate Biotechnology) with 2 ml culture medium with 1 μg/ml human growth hormone (hGH) (Norditropin, Novo Nordisk). After 7 days in culture at 37C the medium was replaced with culture medium without hGH or with addition of 100 nM GLP-1, 5 μM Arg^34, Lys^26(N-ε-(γ-Glu(N-α-hexadecanoyl)))-GLP-1(7-37) or 200 ng/ml hGH. After 2 days in culture 10 μM 5-bromo-2-deoxyuridine (BrdU) was added and after 90 min the medium was removed and the cells fixed in 1% paraformaldehyde in 0.1 M phosphate buffer. The cells were then stained with antibodies to BrdU and insulin as described (Billestrup and Nielsen, 1991). The number of labelled beta cells in the absence of hormones was 0.6% and in the presence of hGH 3.5%. In the presence of GLP-1 the number was 1.7% and in the presence of Arg^34, Lys^26(N-ε-(γ-Glu(N-α-hexadecanoyl)))-GLP-1(7-37) 1.4%.

beta-cells of ZDF rats [2] = experiment: relative mass of islet beta-cells, point counting stereologic techniques; format: in vivo, rat
Excerpt: (§1) The rat experiment described in example 2 were examined for effects of Arg^34, Lys^26(N-ε-(γ-Glu(N-α-hexadecanoyl)))-GLP-1(7-37) (named GLP-1 in FIG. 3 and 4) on beta-cell growth and neogenesis.
Neighbor sections were stained for insulin and the combination of glucagon-somatostatin-pancreatic polypeptide for the measurement of the relative mass of islet beta-cells and nonbeta-cells. The beta-cells were stained for insulin as described above. The nonbeta-cells were stained with a mixture of monoclonal mouse anti-glucagon+rabbit anti-somatostatin+rabbit anti-pancreatic polypeptide, detected by biotinylated swine anti-multible Ig's, avidin peroxidase, and developed with DAB and CuSO4 to give a dark brown stain. The volume fractions of beta- and nonbeta-cells were estimated by point counting stereologic techniques.

[3] = system: male Zucker Diabetic Fatty fa/fa (ZDF) rat; experiment: blood glucose during a normal 24-hour feeding schedule in ZDF rats; format: in vivo
Excerpt: (§2) The male Zucker Diabetic Fatty fa/fa (ZDF) rat is a model of Type 2 diabetes. The rats are insulin resistant but normoglycemic from birth and they develop diabetes from about week 7 to week 10 of age. During the transitional period, the animals go through a state of impaired glucose tolerance. Although the animals are hyperinsulinemic before diabetes onset and during the early stages of diabetes, they later lose glucose-stimulated insulin secretion and finally become almost completely insulinopenic.
(§3) We have studied the effects of Arg^34, Lys^26(N-ε-(γ-Glu(N-α-hexadecanoyl)))-GLP-1(7-37) therapy during a period of time when the animals would normally progress from having impaired glucose tolerance to having overt Type 2 diabetes. Three groups of male ZDF rats (Genetic Models Inc, Indianapolis, Ind., U.S.A.) were studied and dosed subcutaneously bi-daily with either vehicle (group A), 30 (group B) or 150 μg/kg (group C) of Arg^34, Lys^26(N-ε-(γ-Glu(N-α-hexadecanoyl)))-GLP-1(7-37), n=6 per group. Animals were between 7 and 8 weeks old when dosing was initiated, and fed glucose levels were not different between the groups before dosing began. […] After 36 days of dosing, an oral glucose tolerance test was performed in the animals after an 11-hour fast. One g/kg of glucose was administered by oral gavage and subsequent measurements of blood glucose and plasma insulin were made.

beta-cells of ZDF rats [4] = experiment: beta-cell proliferation rate in vivo, BrDU and insulin double staining of pancreas sections; design: species or system rat; conditions: 30 and 150 μg/kg bi-daily, 100 mg BrDU/kg i.p. six hours before sacrifice
Experimental: as §1
Bromodeoxyuridine (BrDU) is incorporated in newly synthesized DNA and thus will label replicating cells. Six hours before sacrifice the rats were given an injection of 100 mg BrDU/kg intraperitoneally. After sacrifice the pancreata were fixed in 4% PFA, dehydrated, embedded in paraffin, and […] sections double stained for BrDU and insulin for the measurement of beta-cell proliferation rate.
Insulin was stained with guinea pig anti-insulin, peroxidase-coupled rabbit anti-guinea pig Ig, and developed with AEC to give a red stain. BrDU was stained by monoclonal mouse anti-BrDU, biotinylated goat anti-mouse Ig, avidin peroxidase, and developed with DAB and CuSO4 to give a dark brown stain. BrDU stained nuclei of cells with insulin stained cytoplasm was examined in more than 1500 cells per section. The examination of the sections were carried out with the origin of the sections blinded to the observer.

[5] = system: male Zucker Diabetic Fatty fa/fa (ZDF) rat; experiment: oral glucose tolerance test in ZDF rats; format: in vivo; conditions: group C, 150 μg/kg bi-daily, after 36 days; 11-hour fast, 1 g/kg glucose by oral gavage; total AUC, p<0.0002 by ANOVA
Excerpt: as §2, §3

## hGH: human growth hormone (hGH) (Norditropin, Novo Nordisk)
[1]; 200 ng/ml hGH, 2 days in culture
  number of labelled beta cells: 3.5%

## GLP-1: The term GLP-1 means GLP-1(7-37) or GLP-1(7-36) amide [reference compound]
[1]; 100 nM GLP-1, 2 days in culture
  number of labelled beta cells: 1.7%
[1]; BrdU incorporation into DNA in insulin positive cells, newborn rat islet cells
  number of labelled beta cells (in words): increase the number of labelled beta cells

## Arg^34, Lys^26(N-ε-(γ-Glu(N-α-hexadecanoyl)))-GLP-1(7-37)
beta-cells of ZDF rats [2]; 30 ng/g for 6 weeks
  beta-cell fraction of the total pancreas, compared to vehicle treated rats: significantly higher
beta-cells of ZDF rats [2]; 150 ng/g, compared to 30 ng/g
  beta-cell fraction of the total pancreas: no further increase
[1]; 5 μM, 2 days in culture
  number of labelled beta cells: 1.4%
[3]; group B (low dose), 30 μg/kg subcutaneously bi-daily, after 10 days of dosing
  blood glucose levels during a normal 24-hour feeding schedule: hyperglycemic
[3]; group C, 150 μg/kg subcutaneously bi-daily, after 10 days of dosing
  blood glucose levels during a normal 24-hour feeding schedule, compared to initial measurements: unchanged compared to the initial measurements
[3]; group C, 150 μg/kg subcutaneously bi-daily, after 10 days, total area under the curve, p<0.0002 by ANOVA
  blood glucose levels during a normal 24-hour feeding schedule, compared to vehicle- and low-dose-treated animals: significantly lower
beta-cells of ZDF rats [4]
  fraction of beta-cells that had incorporated BrDU: dose dependent increase
[5]
  glycemic level in oral glucose tolerance test, compared to groups A and B: significantly lower
